# From US20080200454A1, “CARBON-LINKED TETRAHYDRO-PYRAZOLO-PYRIDINE MODULATORS OF CATHEPSIN S” (priority 2007, published 2008)
# Biological target: Recombinant human cathepsin S (CatS) (Homo sapiens, UniProt P25774)
# Assay: Recombinant human cathepsin S (CatS) inhibition assay, fluorogenic substrate Z-Valine-Valine-Arginine-AMC;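 further: Baculovirus-expressed CatS in pH 5.0 sodium acetate buffer with DTT and NaCl, fluorescence read each minute over 20 min, inhibition derived from rate slope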
# Conditions: not given
# Chain of Recombinant human cathepsin S (CatS) (P25774 115-331): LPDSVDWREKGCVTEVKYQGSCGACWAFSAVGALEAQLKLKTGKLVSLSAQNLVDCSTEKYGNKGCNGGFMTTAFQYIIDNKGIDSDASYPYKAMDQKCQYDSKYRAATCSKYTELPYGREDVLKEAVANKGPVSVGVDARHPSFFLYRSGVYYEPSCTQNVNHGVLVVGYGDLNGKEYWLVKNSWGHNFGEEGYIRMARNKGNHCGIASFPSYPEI
row,IC50 [nM],SMILES
1,320,"C[C@H]1COCCN1CCCn1nc(-c2ccc(Cl)c(C#Cc3cccc(CNCc4ccc(Cl)cc4)c3)c2)c2c1CCN(S(C)(=O)=O)C2 [Example 439, 1-[3-({2-Chloro-5-[1-{3-[(3S)-3-methylmorpholin-4-yl]propyl}-5-(methylsulfonyl)-4,5,6,7-tetrahydro-1H-pyrazolo[4,3-c]pyridin-3-yl]phenyl}ethynyl)phenyl]-N-[(4-chlorophenyl)methyl]methanamine]"
2,460,"CC1C(=O)NCCN1CCCn1nc(-c2ccc(Cl)c(C#Cc3ccc(CNCc4ccc(Cl)cc4)cc3)c2)c2c1CCN(S(C)(=O)=O)C2 (centres unmarked) [Example 406, 4-{3-[3-(4-Chloro-3-{[4-({[(4-chlorophenyl)methyl]amino}methyl)phenyl]ethynyl}phenyl)-5-(methylsulfonyl)-4,5,6,7-tetrahydro-1H-pyrazolo[4,3-c]pyridin-1-yl]propyl}-3-methylpiperazin-2-one]"
3,80,"NC(=O)N1CCc2c(c(-c3ccc(Cl)c(C#Cc4ccc(CNCc5ccc(Cl)cc5)cc4)c3)nn2C[C@@H](O)CN2CCOCC2)C1 [Example 259, (S)-3-(4-Chloro-3-{4-[(4-chloro-benzylamino)-methyl]-phenylethynyl}-phenyl)-1-(2-hydroxy-3-morpholin-4-yl-propyl)-1,4,6,7-tetrahydro-pyrazolo[4,3-c]pyridine-5-carboxylic acid amide]"
4,> 20000,"CS(=O)(=O)N1CCc2c(c(-c3ccc(Cl)c(C#CCN)c3)nn2CCCN2CCOCC2)C1 [Example 303, 3-{2-Chloro-5-[5-(methylsulfonyl)-1-(3-morpholin-4-ylpropyl)-4,5,6,7-tetrahydro-1H-pyrazolo[4,3-c]pyridin-3-yl]phenyl}prop-2-yn-1-amine]"
5,640,"CN(Cc1ccccc1)Cc1ccc(C#Cc2cc(-c3nn(CCCN4CCOCC4)c4c3CN(S(C)(=O)=O)CC4)ccc2Cl)cc1 [Example 77, Benzyl-(4-{2-chloro-5-[5-methanesulfonyl-1-(3-morpholin-4-yl-propyl)-4,5,6,7-tetrahydro-1H-pyrazolo[4,3-c]pyridin-3-yl]-phenylethynyl}-benzyl)-methyl-amine]"
6,20,"NC(=O)N1CCc2c(c(-c3ccc(Cl)c(CCc4ccc(Cl)cc4)c3)nn2C[C@@H](O)CN2CCC(C3CCNCC3)CC2)C1 [Example 479, 1-[(2S)-3-(4,4′-Bipiperidin-1-yl)-2-hydroxypropyl]-3-{4-chloro-3-[2-(4-chlorophenyl)ethyl]phenyl}-1,4,6,7-tetrahydro-5H-pyrazolo[4,3-c]pyridine-5-carboxamide]"
7,40,"NC(=O)N1CCc2c(c(-c3ccc(Cl)c(C#Cc4ccc(CNCc5ccc(Cl)cc5)cc4)c3)nn2C[C@@H](O)CN2CCSCC2)C1 [Example 251, (S)-3-(4-Chloro-3-{4-[(4-chloro-benzylamino)-methyl]-phenylethynyl}-phenyl)-1-(2-hydroxy-3-thiomorpholin-4-yl-propyl)-1,4,6,7-tetrahydro-pyrazolo[4,3-c]pyridine-5-carboxylic acid amide]"
8,13500,"CS(=O)(=O)N1CCc2c(c(-c3ccc(Cl)c(C#CCOc4ccccc4)c3)nn2CCCN2CCOCC2)C1 [Example 52, 3-[4-Chloro-3-(3-phenoxy-prop-1-ynyl)-phenyl]-5-methanesulfonyl-1-(3-morpholin-4-yl-propyl)-4,5,6,7-tetrahydro-1H-pyrazolo[4,3-c]pyridine]"
9,290,"CS(=O)(=O)N1CCc2c(c(-c3ccc(Cl)c(C#Cc4cccc(CNCc5ccccc5)c4)c3)nn2CCCN2CCOCC2)C1 [Example 379, 1-[3-({2-Chloro-5-[5-(methylsulfonyl)-1-(3-morpholin-4-ylpropyl)-4,5,6,7-tetrahydro-1H-pyrazolo[4,3-c]pyridin-3-yl]phenyl}ethynyl)phenyl]-N-(phenylmethyl)methanamine]"
10,570,"CS(=O)(=O)N1CCc2c(c(-c3ccc(Cl)c(C#Cc4ccc(CNCc5ccc(Cl)cc5)cc4)c3)nn2CCCN2CCOCC2C(=O)O)C1 (centres unmarked) [Example 437, 4-{3-[3-(4-Chloro-3-{[4-({[(4-chlorophenyl)methyl]amino}methyl)phenyl]ethynyl}phenyl)-5-(methylsulfonyl)-4,5,6,7-tetrahydro-1H-pyrazolo[4,3-c]pyridin-1-yl]propyl}morpholine-3-carboxylic acid]"
11,60,"NC(=O)C(=O)N1CCc2c(c(-c3ccc(Cl)c(C#Cc4ccc5c(c4)CN(Cc4ccc(Cl)cc4)CC5)c3)nn2CCCN2CCOCC2)C1 [Example 159, 2-{3-[4-Chloro-3-({2-[(4-chlorophenyl)methyl]-1,2,3,4-tetrahydroisoquinolin-7-yl}ethynyl)phenyl]-1-(3-morpholin-4-ylpropyl)-1,4,6,7-tetrahydro-5H-pyrazolo[4,3-c]pyridin-5-yl}-2-oxoacetamide]"
12,50,"CS(=O)(=O)N1CCc2c(c(-c3ccc(Cl)c(C#Cc4ccc(CNC5CCc6ccccc65)cc4)c3)nn2CCCN2CCN(c3ccccn3)CC2)C1 (centres unmarked) [Example 470, N-({4-[(2-Chloro-5-{5-(methylsulfonyl)-1-[3-(4-pyridin-2-ylpiperazin-1-yl)propyl]-4,5,6,7-tetrahydro-1H-pyrazolo[4,3-c]pyridin-3-yl}phenyl)ethynyl]phenyl}methyl)-2,3-dihydro-1H-inden-1-amine]"
13,4560,"CN(C)C(=O)N1CCc2c(c(-c3ccc(Cl)c(C#Cc4ccc(CNCc5ccc(Cl)cc5)cc4)c3)nn2CCCN2CCOCC2)C1 [Example 498, 3-(4-Chloro-3-{[4-({[(4-chlorophenyl)methyl]amino}methyl)phenyl]ethynyl}phenyl)-N,N-dimethyl-1-(3-morpholin-4-ylpropyl)-1,4,6,7-tetrahydro-5H-pyrazolo[4,3-c]pyridine-5-carboxamide]"

# Same assay, conditions: CatS IC50
row,SMILES,IC50 [nM]
1,"C[C@H]1COCCN1C[C@@H](O)Cn1nc(-c2ccc(Cl)c(C#Cc3ccc(CNCc4ccc(Cl)cc4)cc3)c2)c2c1CCN(S(C)(=O)=O)C2 [Example 529, (2R)-1-[3-(4-Chloro-3-{[4-({[(4-chlorophenyl)methyl]amino}methyl)phenyl]ethynyl}phenyl)-5-(methylsulfonyl)-4,5,6,7-tetrahydro-1H-pyrazolo[4,3-c]pyridin-1-yl]-3-[(3S)-3-methylmorpholin-4-yl]propan-2-ol]",120
2,"CCOC(=O)CN1CCc2cc(C#Cc3cc(-c4nn(CCCN5CCOCC5)c5c4CN(S(C)(=O)=O)CC5)ccc3Cl)ccc2C1 [Example 526, Ethyl [6-({2-chloro-5-[5-(methylsulfonyl)-1-(3-morpholin-4-ylpropyl)-4,5,6,7-tetrahydro-1H-pyrazolo[4,3-c]pyridin-3-yl]phenyl}ethynyl)-3,4-dihydroisoquinolin-2(1H)-yl]acetate]",370
3,"CC(C)CC#Cc1cc(-c2nn(C[C@@H](O)CN3CCC(C4CCNCC4)CC3)c3c2CN(S(C)(=O)=O)CC3)ccc1Cl [Example 239, (2S)-1-(4,4′-Bipiperidin-1-yl)-3-{3-[4-chloro-3-(4-methylpent-1-yn-1-yl)phenyl]-5-(methylsulfonyl)-4,5,6,7-tetrahydro-1H-pyrazolo[4,3-c]pyridin-1-yl}propan-2-ol]",610
4,"O=C(CO)N1CCc2c(c(-c3ccc(Cl)c(C#Cc4ccc(CNCc5ccc(Cl)cc5)cc4)c3)nn2CCCN2CCN(c3ccccc3)CC2)C1 [Example 172, 2-{3-(4-Chloro-3-{[4-({[(4-chlorophenyl)methyl]amino}methyl)phenyl]ethynyl}phenyl)-1-[3-(4-phenylpiperazin-1-yl)propyl]-1,4,6,7-tetrahydro-5H-pyrazolo[4,3-c]pyridin-5-yl}-2-oxoethanol]",30
5,"CN(Cc1ccc(Cl)cc1)Cc1ccc(C#Cc2cc(-c3nn(CCCN4CCN(c5ccccc5)CC4)c4c3CN(S(C)(=O)=O)CC4)ccc2Cl)cc1 [Example 490, 1-{4-[(2-Chloro-5-{5-(methylsulfonyl)-1-[3-(4-phenylpiperazin-1-yl)propyl]-4,5,6,7-tetrahydro-1H-pyrazolo[4,3-c]pyridin-3-yl}phenyl)ethynyl]phenyl}-N-[(4-chlorophenyl)methyl]-N-methylmethanamine]",70
6,"NC(=O)N1CCc2c(c(-c3ccc(Cl)c(C#Cc4ccc(C(=O)N5CCCC5)cc4)c3)nn2CCCN2CCSCC2)C1 [Example 164, 3-(4-Chloro-3-{[4-(pyrrolidin-1-ylcarbonyl)phenyl]ethynyl}phenyl)-1-(3-thiomorpholin-4-ylpropyl)-1,4,6,7-tetrahydro-5H-pyrazolo[4,3-c]pyridine-5-carboxamide]",730
7,"COC(=O)CNCc1ccc(C#Cc2cc(-c3nn(CCCN4CCOCC4)c4c3CN(S(C)(=O)=O)CC4)ccc2Cl)cc1 [Example 347, Methyl N-{[4-({2-chloro-5-[5-(methylsulfonyl)-1-(3-morpholin-4-ylpropyl)-4,5,6,7-tetrahydro-1H-pyrazolo[4,3-c]pyridin-3-yl]phenyl}ethynyl)phenyl]methyl}glycinate]",610
8,"CS(=O)(=O)N1CCc2c(c(-c3ccc(Cl)c(C#Cc4ccc5c(c4)CNCCC5)c3)nn2CCCN2CCOCC2)C1 [Example 489, 8-({2-Chloro-5-[5-(methylsulfonyl)-1-(3-morpholin-4-ylpropyl)-4,5,6,7-tetrahydro-1H-pyrazolo[4,3-c]pyridin-3-yl]phenyl}ethynyl)-2,3,4,5-tetrahydro-1H-2-benzazepine]",480
9,"CS(=O)(=O)N1CCc2c(c(-c3ccc(Cl)c(C#Cc4ccc(CNCc5ccc(Cl)cc5)cc4)c3)nn2CCCN2CCN(c3cccnc3)CC2)C1 [Example 417, 1-{4-[(2-Chloro-5-{5-(methylsulfonyl)-1-[3-(4-pyridin-3-ylpiperazin-1-yl)propyl]-4,5,6,7-tetrahydro-1H-pyrazolo[4,3-c]pyridin-3-yl}phenyl)ethynyl]phenyl}-N-[(4-chlorophenyl)methyl]methanamine]",20
10,"CS(=O)(=O)N1CCc2c(c(-c3ccc(Cl)c(C#Cc4ccc(-c5nc6ccccc6[nH]5)cc4)c3)nn2CCCN2CCOCC2)C1 [Example 320, 3-(3-{[4-(1H-Benzimidazol-2-yl)phenyl]ethynyl}-4-chlorophenyl)-5-(methylsulfonyl)-1-(3-morpholin-4-ylpropyl)-4,5,6,7-tetrahydro-1H-pyrazolo[4,3-c]pyridine]",90
